From patent EP0513000B1, “MRI IMAGE ENHANCEMENT OF BONE AND RELATED TISSUE USING COMPLEXES OF PARAMAGNETIC CATIONS AND POLYPHOSPHONATE LIGANDS” (CONCAT LTD., priority 1989, dated 1991)

How the values were obtained:
[1] = Relative equilibrium constant measurements (competition with EHPG for Fe(III)); assay type: physicochemical; conditions: 0.25M phosphate buffer at pH 7.2, heated overnight at 100°C, TLC and colour
Description: The highly colored Fe(III) complex of EHPG (used for comparison in part E of this example) was dissolved in 0.25 M phosphate buffer at pH 7.2, and an equimolar quantity of N,N',N''-tris(dihydroxyphosphorylmethyl)-1,4,7-triazacyclononane was added. The solution was heated overnight at 100°C.
The reverse experiment was also performed. The Fe(III) complex of N,N',N''-tris(dihydroxyphosphorylmethyl)-1,4,7-triazacyclononane was thus dissolved in 0.25M phosphate buffer at pH 7.2, and an equimolar quantity of EHPG was added. The solution was heated overnight at 100°C.

[2] = In vivo distribution of radioisotopically labeled analogs (radioassay of tissues); set-up: species or system mice; conditions: radioisotope analog; for concentration of agent in brain: within the first hour
Description: (§1) The resulting complexes were subjected to radiochromatography to insure acceptable radiopurity and identity with the parent complexes. They were then administered intravenously to mice in order to measure in vivo distribution and whole body clearance. The location of the test species in the mice's bodies and the rate at which the test species were cleared from the mice's bodies after administration were determined by radioassay of tissues and whole body counting, both performed by conventional gamma ray counting techniques. Concentration of activity in tissues was determined as activity per gram of tissue, and whole body counts were expressed as the percentage of whole body activity at a given time with respect to whole body activity immediately after injection. The results were as follows: • 1. Radioisotopes of Test Species A and B. In vivo distribution. […] By measurements taken one hour after administration, the ratio of the concentration of the test species in bone to that in whole blood was generally over 25:1, while the ratio of their concentration in kidney to that in blood was generally over 10:1. Even after 24 hours, when less than 5% of the administered dose remained in the body (see below), a high ratio of concentration of the test species in bone and kidney to that in blood was maintained. […] Whole Body Clearance. […] Radioisotope of Test species C. In vivo distribution. One hour after administration, the measured bone-to-blood concentration ratio was greater than 4.5:1, and the measured kidney-to-blood ratio was greater than 5.5:1. […] Whole Body Clearance. Within 24 hours of administration, over 95% of the tent species had been cleared from the body. • 3. Radioisotope of Test Species D. In vivo distribution. One hour after administration, the measured bone-to-blood concentration ratio was greater than 6:1, and the measured kidney-to-blood ratio was greater than 10:1. […] Whole Body Clearance.

[3] = Whole body clearance of radioisotopically labeled analogs (whole body counting); assay type: in vivo; conditions: mice, intravenous, radioisotope analog
Description: Radioisotopically labeled analogs of test species selected from those listed above were synthesized, using radioisotopes of Fe(III) (iron-59), Cr(III) (chromium-51) and Gd(III) (gadolinium-153), and employing the general synthesis procedures described above. The resulting complexes were subjected to radiochromatography to insure acceptable radiopurity and identity with the parent complexes. They were then administered intravenously to mice in order to measure in vivo distribution and whole body clearance.
as §1, with “The” for “The resulting complexes were subjected to radiochromatography to insure acceptable radiopurity and identity with the parent complexes. They were then administered intravenously to mice in order to measure in vivo distribution and whole body clearance. The”

[4] = Stability: TLC before and after heating; assay type: physicochemical; conditions: heating at 100°C for two hours
Description: TLC was performed on test species A and D, both before and after heating at 100°C for two hours.

[5] = Proton longitudinal relaxivity (1/τ1) measurements; assay type: physicochemical; conditions: 20 MHz, 0.1 M phosphate buffer at pH 7.2
Description: Measurements of proton longitudinal relaxivity (1/τ1) were performed on some of the test species listed above, and compared with those obtained using the following complexes outside the scope of this invention: (i) Gd(III) with diethylenetriamine pentaacetic acid (DTPA), and (ii) Fe(III) with N,N'-ethylenebis[(2-hydroxyphenyl)-glycinate] (EHPG). All measurements were obtained using a Bruckner PC/20 Minispec device operating at 20 MHz. All samples were dissolved in 0.1 M phosphate buffer at pH 7.2.

Water solubility = assay type: physicochemical; conditions: read-out: soluble in water at concentrations
mice = test: Toxicity after intravenous administration to mice, two-week observation; assay type: in vivo; conditions: for Survived?: mice, intravenous, alive at end of two-week period
Description: Physiological salts of the various ligand/metal cation complexes described herein were administered intravenously to mice. […] The mice were considered to have "survived" administration of each agent if they were alive at the end of the two-week period.

[6] = within 24 hours of administration

O=P(O)(O)CN1CCN(CP(=O)(O)O)CCN(CP(=O)(O)O)CC1 [N,N',N''-tris(dihydroxyphosphorylmethyl)-1,4,7-triazacyclononane]
species present after equimolar ligand was added to Fe(III) complex of EHPG [1]: TLC showed only the presence of the Fe(III) N,N',N''-tris(dihydroxyphosphorylmethyl)-1,4,7-triazacyclononane complex

O=P(O)(O)CN1CCN(CP(=O)(O)O)CCN(CP(=O)(O)O)CC1 [Test Species A, N,N',N''-tris(dihydroxyphosphorylmethyl)-1,4,7-triazacyclononane]
accumulation of activity in fractured tibia versus contralateral normal tibia ([2]; mice with a tibia broken two to four weeks prior to the study): significantly greater accumulation of activity
ratio of concentration in bone and kidney to that in blood ([2]; mice, intravenous, after 24 hours): high ratio
activity in the brain ([2]; mice, intravenous, at all times following administration): very low activity
concentration of radioactivity in bone and kidneys ([2]; mice, intravenous, within 2 minutes following administration): evidence of concentration of radioactivity in bone and kidneys
administered dose remained in the body ([3]; after 24 hours): less than 5%
cleared from the body [3, 6]: over 95%
route of whole body clearance [3, 6]: almost exclusively through the urine
TLC before and after heating [4]: A single, chromatographically distinct spot which did not vary as a result of the heating
proton longitudinal relaxivity relative to the Fe(III) complex of EHPG (times greater) [5]: two to three
solubility (Water solubility): > 500 mg/mL
Survived? (mice; Dose 11.8mM/kg, Rate 0.4mM/sec/kg): yes
toxicity observed, versus the single, chromatographically distinct product (mice; preparations made by alternate complexation procedures, containing multiple forms of the complex by TLC): substantially greater

O=P(O)(O)CN1CCN(CP(=O)(O)O)CCN(CP(=O)(O)O)CC1 [Test Species B, N,N',N''-tris(dihydroxyphosphorylmethyl)-1,4,7-triazacyclononane]
Survived? (mice; Dose 9.8mM/kg, Rate 0.7mM/min/kg): yes

O=P(O)(O)CCN1CCN(CCP(=O)(O)O)CCN(CCP(=O)(O)O)CC1 [Test Species C, N,N',N''-tris(dihydroxyphosphorylethyl)-1,4,7-triazacyclononane]
concentration of agent in brain ([2]; mice, intravenous): very low concentration
cleared from the body [3, 6]: over 95%
Survived? (mice; Dose 10.0mM/kg, Rate 2.0mM/min/kg): yes

O=P(O)(O)CN1CCN(CP(=O)(O)O)CCN(CP(=O)(O)O)CC1 [Test Species D, N,N',N''-tris(dihydroxyphosphorylmethyl)-1,4,7-triazacyclononane]
concentration of agent in brain ([2]; mice, intravenous): very low concentration
Survived? (mice; Dose 2.9mM/kg, Rate 0.5mM/sec/kg): yes

O=P(O)(O)CN1CCN(CP(=O)(O)O)CCN(CP(=O)(O)O)CC1 [Test Species E, N,N',N''-tris(dihydroxyphosphorylmethyl)-1,4,7-triazacyclononane]
Survived? (mice; Dose 2.9mM/kg, Rate 1.1mM/min/kg): yes

O=P(O)(O)CN1CCN(CP(=O)(O)O)CCN(CP(=O)(O)O)CC1 [Test Species F, N,N',N''-tris(dihydroxyphosphorylmethyl)-1,4,7-triazacyclononane]
Survived? (mice; Dose 8.0mM/kg, Rate 2.6mM/min/kg): yes

O=P(O)(O)CN1CCN(CP(=O)(O)O)CCN(CP(=O)(O)O)CC1 [Test Species G, N,N',N''-tris(dihydroxyphosphorylmethyl)-1,4,7-triazacyclononane]
Survived? (mice; Dose 3.1mM/kg, Rate 0.8mM/min/kg): yes

Fe(III) complex of N,N',N''-tris(dihydroxyphosphorylmethyl)-1,4,7-triazacyclononane
species present after equimolar EHPG was added to the Fe(III) complex (reverse experiment) [1]: TLC showed only the presence of the Fe(III) N,N',N''-tris(dihydroxyphosphorylmethyl)-1,4,7-triazacyclononane complex
